According to patent publication US20030032879A1, “Microbubble formation using ultrasound” (priority 1997, published 2003):

Legend:
[1] = Acoustic backscatter (gray scale intensity) after injection into water beaker at 37° C.; conditions: 0.2 mL neat liquid (1111 micromoles) into 1000 mL water at 37° C.
Description: The criticality that the low boiling liquid be present as a finely divided dispersion rather than as a neat liquid was determined by measuring the acoustic backscatter of the two states.
Two solutions were prepared to simulate the administration to an organism of either a colloidal dispersion of a low boiling liquid or the liquid neat. These were scanned at 5.0 MHz with a Hewlett Packard Model 77020 ultrasound scanner and the images obtained recorded on Sony ES VHS tape. The analog images from the tape were then converted to a digital form using the software package Global Lab Image Software (Data Translation, Marlboro, Mass.). The gray scale intensity within a 4900 pixel (70×70 pixel-sized) region-of-interest was then measured before and after the injection of the colloidal dispersion of Example 19 and the same quantity of neat dodecafluoropentane into a 1000 mL water beaker equilibrated at 37° C.
The measurements were performed on a gray scale of 2 to 254. […] The injection of 0.1 mL of this emulsion produced a change of intensity to 236 five seconds post-injection and 182 fifty-two seconds post-injection.
The same experiment was performed with a 0.2 mL injection of neat dodecafluoropentane. This corresponds to 1111 micromoles of dodecafluoropentane, over 300-times the quantity in the experiment above. […]

[2] = Interfacial tension against dodecafluoropentane, Kruss Drop Volume Tensiometer; format: physicochemical; conditions: Pluronic P-123 / F-127 mixtures, 4° C.
dogs = conditions: cited from earlier work
[3] = Calculated change in dispersion size from liquid and gas densities; format: physicochemical; conditions: calculated from cubic root of volume
Description: One can also calculate the expected change in dispersion size if one knows the relative densities of the dispersed liquid as a gas and liquid. For example, the Gas Data Book, by W Braker and A Mossman, Matheson, contains such data. Examining octafluorocyclobutane, one finds that 1 L of the liquid yields 188 L of gas at a pressure of 760 mm Hg and 15° C. Since the volume of a sphere is related to the diameter of a sphere by the cubic root of the volume, the phase transition for an octafluorobutane emulsion particle will cause a 5.7-fold increase in diameter.

[4] = 760 mm Hg and 15° C., Gas Data Book; cited from earlier work

Structure (SMILES): FC(F)(F)C(F)(F)C(F)(F)C(F)(F)C(F)(F)F [dodecafluoropentane]
- image intensity (gray scale of 2 to 254) ([1]; fifty-two seconds post-injection): 5.0
- image intensity (gray scale of 2 to 254) ([1]; five seconds post-injection): 7.7
- HLB from graphed interfacial tension data [2]: about 14

Structure (SMILES): CCOCC [ether]
- toxicity (dogs; Injections of 20 mL): fatal
- contrast effect on Doppler signal (dogs; intraarterial, detected five cm below injection site): greatest contrast effect

Structure (SMILES): FC1(F)C(F)(F)C(F)(F)C1(F)F [octafluorocyclobutane]
- increase in diameter of emulsion particle on phase transition [3]: 5.7 fold
- gas volume from 1 L of the liquid [4]: 188 L
